The text below walks through data of patent publication US9346809B2 (LEO PHARMA A/S, priority 2009, dated 2016).

Common to all, as to format: biochemical
For test [1], the target named is T1, JAK3 (catalytic domain, His-tag) (Homo sapiens, UniProt P52333).
T1 construct: All four purified enzymes contain only the catalytic domain; His (N); purchased Carna Biosciences, Inc; host or cells: baculovirus expression system
The experiment in a line: JAK kinase assay (HTRF, phosphorylation of TK substrate-biotin), JAK3. The settings on record: ATP at Km (2 μM). The method in brief:
(§1)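 EC50 values come from HTRF detection of phospho-biotin-TK peptide (1 μM) after 20-30 min RT reactions in Hepes pH 7.0 buffer with 0.75% DMSO. ATP was at Km for each enzyme: 7 μM JAK1, 4 μM JAK2, 2 μM JAK3, 13 μM TYK2. SEB (50 nM) was added for JAK1 and TYK2 only.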
For orientation: In TR-FRET formats the signal depends on donor and acceptor labels being close together.

In test [2] the target is T2, TYK2 (aa 871-1187, catalytic domain, GST-tag) (Homo sapiens, UniProt P29597).
T2 construct: JAK1 (aa 850-1154) and TYK2 (aa 871-1187) are expressed with an N-terminally fused GST-tag; GST (N); purchased Carna Biosciences, Inc; host or cells: baculovirus expression system
T2 sequence (P29597 871-1187): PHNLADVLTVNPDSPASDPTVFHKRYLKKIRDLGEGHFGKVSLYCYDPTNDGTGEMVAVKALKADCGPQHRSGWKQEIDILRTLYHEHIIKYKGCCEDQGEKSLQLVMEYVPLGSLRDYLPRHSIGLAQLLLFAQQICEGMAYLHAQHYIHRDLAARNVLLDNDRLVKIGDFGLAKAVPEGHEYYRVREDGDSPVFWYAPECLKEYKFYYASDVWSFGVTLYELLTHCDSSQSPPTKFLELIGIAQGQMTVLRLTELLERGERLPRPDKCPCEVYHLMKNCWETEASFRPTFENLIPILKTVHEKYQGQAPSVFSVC
Nature of the test: JAK kinase assay (HTRF, phosphorylation of TK substrate-biotin), TYK2. The settings on record: ATP at Km (13 μM). The method, boiled down:
as §1

For test [3], the target named is T3, JAK2 (catalytic domain, His-tag) (Homo sapiens, UniProt O60674).
T3 construct: All four purified enzymes contain only the catalytic domain; His (N); purchased Carna Biosciences, Inc; host or cells: baculovirus expression system
The experiment in a line: JAK kinase assay (HTRF, phosphorylation of TK substrate-biotin), JAK2. The settings on record: ATP at Km (4 μM). The method in brief: as §1

The target of test [4] is T4, JAK1 (aa 850-1154, catalytic domain, GST-tag) (Homo sapiens, UniProt P23458).
T4 construct: JAK1 (aa 850-1154) and TYK2 (aa 871-1187) are expressed with an N-terminally fused GST-tag; GST (N); purchased Carna Biosciences, Inc; host or cells: baculovirus expression system
Nature of the test: JAK kinase assay (HTRF, phosphorylation of TK substrate-biotin), JAK1. The settings on record: ATP at Km (7 μM). The method in brief: as §1

The mark [5] stands for this setting: HTRF assay, read-out: JAK3 kinase inhibitory activity (EC50 indicator).
The mark [6] stands for this setting: HTRF assay, read-out: TYK2 kinase inhibitory activity (EC50 indicator).
The mark [7] stands for this setting: HTRF assay, read-out: JAK2 kinase inhibitory activity (EC50 indicator).
[8] abbreviates: HTRF assay, read-out: JAK1 kinase inhibitory activity (EC50 indicator).
Where [9] appears, read: read-out: JAK3 kinase inhibitory activity (EC50 indicator).
The mark [10] stands for this setting: read-out: TYK2 kinase inhibitory activity (EC50 indicator).
The mark [11] stands for this setting: read-out: JAK2 kinase inhibitory activity (EC50 indicator).
The mark [12] stands for this setting: read-out: JAK1 kinase inhibitory activity (EC50 indicator).

Where two headings read alike, the source gives them in different places. Bounds are passed on as bounds.

As a reminder, the EC50 is the concentration needed to bring the measured effect to its halfway point.

T1 sequence (P52333 822-1111 limits assumed): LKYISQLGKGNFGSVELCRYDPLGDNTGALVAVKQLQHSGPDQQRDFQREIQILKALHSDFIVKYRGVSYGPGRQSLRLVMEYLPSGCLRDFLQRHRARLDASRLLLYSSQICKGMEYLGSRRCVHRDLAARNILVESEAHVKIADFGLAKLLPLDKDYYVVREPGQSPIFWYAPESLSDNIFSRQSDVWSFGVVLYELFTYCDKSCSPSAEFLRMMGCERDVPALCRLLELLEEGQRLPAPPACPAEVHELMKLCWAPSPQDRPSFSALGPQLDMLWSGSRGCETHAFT
T3 sequence (O60674 849-1124 limits assumed): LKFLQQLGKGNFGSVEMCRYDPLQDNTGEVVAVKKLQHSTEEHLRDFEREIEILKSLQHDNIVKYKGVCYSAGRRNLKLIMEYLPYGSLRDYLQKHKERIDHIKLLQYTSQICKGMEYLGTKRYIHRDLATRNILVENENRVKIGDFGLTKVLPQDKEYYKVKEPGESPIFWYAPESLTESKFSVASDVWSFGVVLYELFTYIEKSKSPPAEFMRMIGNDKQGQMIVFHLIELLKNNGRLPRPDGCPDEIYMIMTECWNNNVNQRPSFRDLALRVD
T4 sequence (P23458 850-1154): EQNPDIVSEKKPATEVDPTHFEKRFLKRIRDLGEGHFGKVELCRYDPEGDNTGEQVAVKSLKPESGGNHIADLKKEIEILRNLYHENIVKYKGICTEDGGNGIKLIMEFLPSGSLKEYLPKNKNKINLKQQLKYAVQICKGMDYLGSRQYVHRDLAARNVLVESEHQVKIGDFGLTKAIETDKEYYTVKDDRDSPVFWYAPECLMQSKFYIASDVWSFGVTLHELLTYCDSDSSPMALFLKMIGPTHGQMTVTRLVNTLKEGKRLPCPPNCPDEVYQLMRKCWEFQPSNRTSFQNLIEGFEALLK

For `O=C(c1cc2cc(F)ccc2[nH]1)N1CCN(c2ncnc3[nH]ccc23)CC12CC2` [Example 361, (5-Fluoro-1H-indol-2-yl)-[7-(7H-pyrrolo[2,3-d]pyrimidin-4-yl)-4,7-diaza-spiro[2.5]oct-4-yl]-methanone], the 50% effective concentration (EC50) in test [1] (setting [5]), in test [2] (setting [6]), in test [3] (setting [7]) and in test [4] (setting [8]) was less than 0.1 µM throughout.
On to `O=C(c1ccccc1)N1CCN(c2ncnc3[nH]ccc23)CC12CC2` [Example 27, Phenyl-[7-(7H-pyrrolo[2,3-d]pyrimidin-4-yl)-4,7-diazaspiro[2.5]oct-4-yl]methanone], for which the EC50 is 0.1 to 0.5 µM in test [1] (setting [9]), 0.1 to 0.5 µM in test [2] (setting [10]), less than 0.1 µM in test [3] (setting [11]) and less than 0.1 µM in test [4] (setting [12]).
With `CCC(=O)N1[C@@H]2CC[C@H]1CN(c1ncnc3[nH]ccc13)C2` [Example 30, 1-[3-(7H-Pyrrolo[2,3-d]pyrimidin-4-yl)-3,8-diazabicyclo[3.2.1]oct-8-yl]propan-1-one], the EC50 in test [1] (setting [9]) was more than 0.5 µM; in test [2] (setting [10]) it was more than 0.5 µM; in test [3] (setting [11]), 0.1 to 0.5 µM; in test [4] (setting [12]), 0.1 to 0.5 µM.
As to `CS(=O)(=O)NCCC(=O)N1[C@@H]2CC[C@@H]1CN(c1ncnc3[nH]ccc13)C2` [Example 176, N-{3-Oxo-3-[3-(7H-pyrrolo[2,3-d]pyrimidin-4-yl)-3,8-diaza-bicyclo[3.2.1]oct-8-yl]-propyl}-methanesulfonamide], the EC50 in test [1] (setting [9]) was more than 0.5 µM; in test [2] (setting [10]), more than 0.5 µM; in test [3] (setting [11]), 0.1 to 0.5 µM; in test [4] (setting [12]) it was 0.1 to 0.5 µM.
On to `O=C(NC1CCCCC1)N1CCN(c2ncnc3[nH]ccc23)CC12CC2` [Example 436, 7-(7H-Pyrrolo[2,3-d]pyrimidin-4-yl)-4,7-diaza-spiro[2.5]octane-4-carboxylic acid cyclohexylamide], for which the EC50 in test [1] (HTRF assay, read-out: JAK3 kinase inhibitory activity (EC50)) is less than 0.1 µM; in test [2] (HTRF assay, read-out: TYK2 kinase inhibitory activity (EC50)) it was 0.1 to 0.5 µM; in test [3] (HTRF assay, read-out: JAK2 kinase inhibitory activity (EC50)), less than 0.1 µM; in test [4] (HTRF assay, read-out: JAK1 kinase inhibitory activity (EC50)), less than 0.1 µM.
Turning to `CC(C)(C#N)C(=O)N1[C@@H]2CC[C@@H]1CN(c1ncnc3[nH]ccc13)C2` [Example 239, 2,2-Dimethyl-3-oxo-3-[3-(7H-pyrrolo[2,3-d]pyrimidin-4-yl)-3,8-diaza-bicyclo[3.2.1]oct-8-yl]-propionitrile], the EC50 is 0.1 to 0.5 µM in test [1] (setting [5]), more than 0.5 µM in test [2] (setting [6]), 0.1 to 0.5 µM in test [3] (setting [7]) and 0.1 to 0.5 µM in test [4] (setting [8]).
Take `Cc1c[nH]c2ncnc(N3CCN(C(=O)CCCC#N)C4(CC4)C3)c12` [Example 332, 5-[7-(5-Methyl-7H-pyrrolo[2,3-d]pyrimidin-4-yl)-4,7-diaza-spiro[2.5]oct-4-yl]-5-oxo-pentanenitrile]: the EC50 in test [1] (setting [5]), in test [2] (setting [6]), in test [3] (setting [7]) and in test [4] (setting [8]) was more than 0.5 µM in each case.
`O=C(c1ccncc1)N1CCN(c2ccnc3[nH]ccc23)CC12CC2` [Example 224, Pyridin-4-yl-[7-(1H-pyrrolo[2,3-b]pyridin-4-yl)-4,7-diaza-spiro[2.5]oct-4-yl]-methanone]: the EC50 was more than 0.5 µM in test [1] (setting [5]), more than 0.5 µM in test [2] (setting [6]), 0.1 to 0.5 µM in test [3] (setting [7]) and 0.1 to 0.5 µM in test [4] (setting [8]).
For the compound `CS(=O)(=O)c1ccc(C(=O)N2CCN(c3ncnc4[nH]ccc34)CC23CC3)cc1N1CCCC1` [Example 194, (4-Methanesulfonyl-3-pyrrolidin-1-yl-phenyl)-[7-(7H-pyrrolo[2,3-d]pyrimidin-4-yl)-4,7-diaza-spiro[2.5]oct-4-yl]-methanone], the half-maximal effective concentration (EC50) in test [1] (setting [9]) was 0.1 to 0.5 µM; in test [2] (setting [10]), more than 0.5 µM; in test [3] (setting [11]), less than 0.1 µM; in test [4] (setting [12]) it was less than 0.1 µM.
As for `O=C(c1ccc(S(=O)(=O)NCC2CCCO2)cc1)N1CCN(c2ncnc3[nH]ccc23)CC12CC2` (centres unmarked) [Example 394, 4-[7-(7H-Pyrrolo[2,3-d]pyrimidin-4-yl)-4,7-diaza-spiro[2.5]octane-4-carbonyl]-N-(tetrahydro-furan-2-ylmethyl)-benzenesulfonamide], the EC50 was 0.1 to 0.5 µM in test [1] (setting [5]), 0.1 to 0.5 µM in test [2] (setting [6]), less than 0.1 µM in test [3] (setting [7]) and less than 0.1 µM in test [4] (setting [8]).
Take `O=C([C@@H]1CCCc2ccccc21)N1CCN(c2ncnc3[nH]ccc23)CC12CC2` [Example 415, [7-(7H-Pyrrolo[2,3-d]pyrimidin-4-yl)-4,7-diaza-spiro[2.5]oct-4-yl]-(1,2,3,4-tetrahydro-naphthalen-1-yl)-methanone]: the EC50 in test [1] (setting [5]) was more than 0.5 µM; in test [2] (setting [6]), more than 0.5 µM; in test [3] (setting [7]), 0.1 to 0.5 µM; in test [4] (setting [8]), 0.1 to 0.5 µM.
Regarding `O=C(c1ccc(S(=O)(=O)C2CCCC2)cc1)N1CCN(c2ncnc3[nH]ccc23)CC12CC2` [Example 407, (4-Cyclopentanesulfonyl-phenyl)-[7-(7H-pyrrolo[2,3-d]pyrimidin-4-yl)-4,7-diaza-spiro[2.5]oct-4-yl]-methanone], the EC50 in test [1] (setting [5]) was more than 0.5 µM; in test [2] (setting [6]), more than 0.5 µM; in test [3] (setting [7]), less than 0.1 µM; in test [4] (setting [8]) it was less than 0.1 µM.
Consider `O=C(c1csc2ccccc12)N1[C@H]2CC[C@H]1CN(c1ncnc3[nH]ccc13)C2` [Example 246, Benzo[b]thiophen-3-yl-[3-(7H-pyrrolo[2,3-d]pyrimidin-4-yl)-3,8-diaza-bicyclo[3.2.1]oct-8-yl]-methanone], for which the EC50 is less than 0.1 µM in test [1] (setting [5]), 0.1 to 0.5 µM in test [2] (setting [6]), less than 0.1 µM in test [3] (setting [7]) and less than 0.1 µM in test [4] (setting [8]).
For `O=C(c1cnc2ccccc2n1)N1[C@@H]2CC[C@H]1CN(c1ncnc3[nH]ccc13)C2` [Example 345, [3-(7H-Pyrrolo[2,3-d]pyrimidin-4-yl)-3,8-diaza-bicyclo[3.2.1]oct-8-yl]-quinoxalin-2-yl-methanone], the EC50 in test [1] (setting [5]) was 0.1 to 0.5 µM; in test [2] (setting [6]) it was more than 0.5 µM; in test [3] (setting [7]) it was less than 0.1 µM; in test [4] (setting [8]), less than 0.1 µM.
For `N#Cc1cccc(CC(=O)N2[C@@H]3CC[C@@H]2CN(c2ncnc4[nH]ccc24)C3)c1` [Example 179, 3-{2-Oxo-2-[3-(7H-pyrrolo[2,3-d]pyrimidin-4-yl)-3,8-diaza-bicyclo[3.2.1]oct-8-yl]-ethyl}-benzonitrile], the EC50 in test [1] (setting [9]) was more than 0.5 µM; in test [2] (setting [10]), more than 0.5 µM; in test [3] (setting [11]) it was 0.1 to 0.5 µM; in test [4] (setting [12]) it was 0.1 to 0.5 µM.
In the case of `N#CCC(=O)N1CCN(c2ccnc3[nH]ccc23)CC12CC2` [Example 220, 3-Oxo-3-[7-(1H-pyrrolo[2,3-b]pyridin-4-yl)-4,7-diaza-spiro[2.5]oct-4-yl]-propionitrile], the EC50 in test [1] (setting [5]) is 0.1 to 0.5 µM; in test [2] (setting [6]), more than 0.5 µM; in test [3] (setting [7]), 0.1 to 0.5 µM; in test [4] (setting [8]), 0.1 to 0.5 µM.
For the compound `O=C(C1CCCO1)N1CCN(c2ncnc3[nH]ccc23)CC12CC2` (centres unmarked) [Example 22, [7-(7H-Pyrrolo[2,3-d]pyrimidin-4-yl)-4,7-diazaspiro[2.5]oct-4-yl]-(tetrahydrofuran-2-yl)methanone], the EC50 in test [1] (setting [9]) is 0.1 to 0.5 µM; in test [2] (setting [10]), more than 0.5 µM; in test [3] (setting [11]) it was less than 0.1 µM; in test [4] (setting [12]), 0.1 to 0.5 µM.
`NS(=O)(=O)c1ccc(CCC(=O)N2CCN(c3ncnc4[nH]ccc34)CC23CC3)cc1` [Example 383, 4-{3-Oxo-3-[7-(7H-pyrrolo[2,3-d]pyrimidin-4-yl)-4,7-diaza-spiro[2.5]oct-4-yl]-propyl}-benzenesulfonamide]: the EC50 in test [1] (setting [5]), in test [2] (setting [6]), in test [3] (setting [7]) and in test [4] (setting [8]) was less than 0.1 µM each time.
With `COC(=O)c1cc2c(N3CCN(C(=O)CCCC#N)C4(CC4)C3)ncnc2[nH]1` [Example 339, 4-[4-(4-Cyano-butyryl)-4,7-diaza-spiro[2.5]oct-7-yl]-7H-pyrrolo[2,3-d]pyrimidine-6-carboxylic acid methyl ester], the EC50 in test [1] (setting [5]), in test [2] (setting [6]), in test [3] (setting [7]) and in test [4] (setting [8]) was more than 0.5 µM throughout.
In the case of `COC(=O)c1cc2c(N3CCN(C(=O)CCC#N)C4(CC4)C3)ncnc2[nH]1` [Example 340], the EC50 in test [1] (setting [5]), in test [2] (setting [6]), in test [3] (setting [7]) and in test [4] (setting [8]) was more than 0.5 µM each time.
